Consider 1 molecule from paper PMC6760105, “Construction of a novel quinoxaline as a new class of Nrf2 activator” (BMC Chemistry, 2019).

Data set [1] is described as follows: Microsomal metabolic stability, human liver microsomes. The following applies: NQC 1 µM. The format is in vitro ADME. How it is done:
(§1) A stock solution (SS) of NQC at 1 mM was prepared using 100% dimethyl sulfoxide. Working solution of 10 μM was further prepared by dilution of SS with 25% ACN and 50 mM tris–HCl buffer (pH 7.4). In a 96-well plate, NQC (effective concentration:1 µM) was incubated with phosphate buffer (pH7.4) and 0.5 mg/mL of liver microsomes (human, rat and mouse) at 37 °C in an incubation. Each NQC incubation with liver microsomes was performed in triplicates. The microsomal metabolic reaction was initiated by the addition of co-factor, NADPH (5 mM). Samples following the allotted time-point was drawn and quenched into a solution of acetonitrile containing 50 ng/mL internal standard. The sample was analysed by a developed HPLC method that has been validated for lower limit of quantification, linearity, precision, selectivity and accuracy according to FDA guidance.
(§2) Half-life of NQC was calculated using the equation: T1/2=0.693/K.
(§3) The in vitro microsomal intrinsic clearance (CLint) was calculated based on the equation below: Clint=0.693/invitrot(1/2)×mlincubation/mgmicrosome×52.5mgmicrosome/gliver×[…].

Data set [2] deals with RAW 264.7 cells. As to the kind of experiment: IL-1β production, ELISA, LPSEc stimulated cells. The format is cell-based. The following applies: Mus musculus, RAW264.7, LPSEc (1 µg/mL) stimulated RAW 264.7 cells. How it is done: (§4) Murine macrophages, cell line: RAW 264.7 was procured from ATCC, USA. The macrophage cells were grown and cultured in Dulbecco’s Modified Eagle Medium (DMEM) supplemented with 10% Fetal Bovine serum (FBS) and 1% PenStrep and incubated in a 5% CO2 at 37 °C incubator. Cells from passages 10 to 20 were used for subsequent experiments.
(§5) Production of IL-1β, IL-6, PGE2− and TNF-α in RAW 264.7 cells were quantitatively measured using an enzyme-linked immunosorbent assay (ELISA). The cells were incubated with 0.1% DMSO or NQC for 4 h, then stimulated with LPSEc, 1 µg/mL, for 20 h. The production of pro-inflammatory cytokines (IL-1β, IL-6) and TNF-α were determined using commercial ELISA kit (RayBio) according to the manufacturer’s instructions in product insert. The absorbance was measured at 540 nm. All the experiments were performed in triplicate.
(An ELISA detects its analyte on a solid surface through an enzyme-linked reagent.)

Data set [3] relates to RAW 264.7 cells. In words: MTT cell viability assay. It is filed as cell-based, mouse. Conditions: for cytotoxic effects on RAW 264.7 cells (MTT): LPSEc stimulated. How it is done: as §4
A calorimetric agent (3-(4,5-Dimethylthiazol-2-yl)-2,5-Diphenyltetrazolium Bromide) (MTT) was used to as an assay to determine cell viability after being exposed to NQC. RAW 264.7 cells were seeded in a 96-well microplate at 3 × 10^5 cells/well and were allowed to grow and adhere for 24 h in a 37 °C, 5% CO2 incubator. NQC was dissolved in DMSO and diluted with PBS to produce the required test concentrations (100, 50, 25, 12.5, 6.25 and 3.125 µM). The negative control is 0.1% (v/v) DMSO, which is the maximum effective concentration of DMSO in a well. The cells were treated with either NQC or 0.1% (v/v) DMSO for 4 h followed by 1 µg/mL LPSEc and incubated further for 20 h. MTT solution was added at 100 µL per well under dark condition and the cells were incubated further for 4 h. Upon completion of incubation, the contents in all wells were aspirated and DMSO was added at 100 µL per well. The absorbance was measured at 570 nm using Molecular Devices Spectramax M3 Multi-Mode microplate reader; Sunnyvale, CA, USA. The cells without any treatment was used as a control. MTT assay was performed in triplicate. The percent cell viability is calculated using the following equation: PercentCellViabilty=AbsorbanceofVehicleorTD-1treatedgroupwell/AbsorbanceofControlwell×100.
(Tetrazolium dyes change colour on reduction, which living cells bring about.)

Data set [4] is described as follows: Microsomal metabolic stability, mouse liver microsomes. The format is in vitro ADME. The following applies: NQC 1 µM. On the procedure:
as §1, §2, §3
A general note: Liver microsomes are vesicles of endoplasmic reticulum, rich in cytochrome P450 enzymes.

In data set [5] the test system is RAW 264.7 cells. In words: TNF-α production, ELISA, LPSEc stimulated cells. The format is cell-based. The following applies: Mus musculus, RAW264.7, LPSEc (1 µg/mL) stimulated RAW 264.7 cells. On the procedure: as §4, §5
Data set [6] concerns RAW 264.7 cells. In words: PGE2 production, ELISA, LPSEc stimulated cells. The following applies: Mus musculus, RAW264.7, LPSEc (1 µg/mL) stimulated RAW 264.7 cells. The format is cell-based. On the procedure: as §4, §5
Data set [7] in a line: Microsomal metabolic stability, rat liver microsomes. The following applies: NQC 1 µM. The format is in vitro ADME. How it is done: as §1, §2, §3
In a further data set the target is T1, Nrf2-Keap1 interaction (Homo sapiens, UniProt Q14145).
T1 construct: purchased BPS Bioscience, USA
T1 sequence (Q14145 whole entry): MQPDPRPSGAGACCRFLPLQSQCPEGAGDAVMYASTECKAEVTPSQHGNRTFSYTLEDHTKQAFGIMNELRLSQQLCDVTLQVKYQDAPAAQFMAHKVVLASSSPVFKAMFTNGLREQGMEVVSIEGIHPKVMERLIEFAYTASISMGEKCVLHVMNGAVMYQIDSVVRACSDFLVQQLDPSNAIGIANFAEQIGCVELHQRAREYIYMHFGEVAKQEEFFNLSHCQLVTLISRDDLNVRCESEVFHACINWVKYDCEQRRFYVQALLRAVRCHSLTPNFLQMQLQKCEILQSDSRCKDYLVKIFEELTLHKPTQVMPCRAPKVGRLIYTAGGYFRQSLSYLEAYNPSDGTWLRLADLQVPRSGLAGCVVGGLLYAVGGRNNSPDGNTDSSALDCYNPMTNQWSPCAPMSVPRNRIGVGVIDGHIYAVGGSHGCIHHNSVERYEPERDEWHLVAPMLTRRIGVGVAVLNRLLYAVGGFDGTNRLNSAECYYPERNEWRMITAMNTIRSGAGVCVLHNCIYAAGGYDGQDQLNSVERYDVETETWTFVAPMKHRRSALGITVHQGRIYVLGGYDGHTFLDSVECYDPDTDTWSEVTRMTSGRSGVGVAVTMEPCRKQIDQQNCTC
As to the kind of experiment: Keap1:Nrf2 Inhibitor Screening Assay Kit (Nrf2 activation assay). The format is binding. Conditions: fluorescence λex 485 nm, λem 530 nm; 100 µM to 1 nM; read-out: IC50, inhibition of Nrf2-Keap1 interaction. How it is done:
The Nrf2 activation by NQC was determined using ‘Keap1:Nrf2 Inhibitor Screening Assay Kit’ (BPS Bioscience, USA) following the instructions in product insert. The NQC was dissolved in DMSO and diluted with assay buffer provided in the kit to produce the concentrations range, 100 µM to 1 nM. The fluorescence of the solutions in each well of 96-well plate was measured at λex 485 nm and λem 530 nm. The dose–response curve was constructed plotting percent reduction in Kepa1-Nrf2 binding activity versus log concentration of NQC. From dose–response curve IC50 value was calculated.

Data set [8] has as its system RAW 264.7 cells. As to the kind of experiment: IL-6 production, ELISA, LPSEc stimulated cells. It is filed as cell-based. Conditions: Mus musculus, RAW264.7, LPSEc (1 µg/mL) stimulated RAW 264.7 cells. How it is done:
as §4, §5

For data set [9], the system named is RAW 264.7 cells. As to the kind of experiment: Nitric oxide (nitrite) production, Griess reagent, LPSEc stimulated cells. It is filed as cell-based. Conditions: Mus musculus, RAW264.7; LPSEc (1 µg/mL) stimulated RAW 264.7 cells; 4 h pretreatment, 20 h LPS; read-out: IC50, NO production. How it is done: as §4
RAW 264.7 cells were seeded in a 96-well microplate at 3 × 10^5 cells/well with complete media. The cells were allowed grow and adhere for 24 h. The cells were treated with NQC (50, 25, 12.5, 6.25 and 3.125 µM) and negative control (0.1% v/v DMSO in water) for 4 h prior to LPSEc (1 µg/mL) and allowed to incubate for 20 h at 37 °C, 5% CO2 incubator. Nitrite exist as a stable metabolite of nitric oxide, thus nitrite present in the supernatant was quantitatively measured as a chemical marker of nitric oxide (NO) production using Griess reagent (Promega, USA; 0.1% naphthylethylenediamine dihydrochloride and 1% sulfanilamide in 2.5% phosphoric acid). This assay was carried out following the manufacturer’s protocol where 100 µL of cell supernatant sample was incubated with 100 µL of Griess reagent at room temperature for 10 min and the absorbance at 540 nm was measured using Molecular Devices Spectramax M3 Multi-Mode microplate reader. […]

What is called half-life is the time needed for the level to fall by half in the phase considered. High values mean slow loss, low ones fast loss. The IC50 is the concentration that gives 50% inhibition.

Turning to `O=C(NNC(=O)c1cnc2ccccc2n1)c1cccnc1` [NQC, N′-(Pyridine-3-carbonyl)quinoxaline-2-carbohydrazide], the Rate of metabolism in data set [1] (human liver microsomes) came out at 0.011 min⁻¹; in data set [4] (mouse liver microsomes), 0.028 min⁻¹; in [7] (rat liver microsomes) it was 0.013 min⁻¹. Moreover, the microsomal intrinsic clearance (CLint) in data set [1] (human liver microsomes) came to 1.14 ± 0.31 mL/min/g liver; in data set [4] (mouse liver microsomes) it was 2.96 ± 0.34 mL/min/g liver; in data set [7] (rat liver microsomes) it was 1.39 ± 0.87 mL/min/g liver. The “mCint (microsomal intrinsic clearance)” value in [1] (human liver microsomes, Table 1) is on record as 1.14 ± 0.31 mL/min/g liver; in [4] (mouse liver microsomes, Table 1), 2.96 ± 0.34 mL/min/g liver; in data set [7] (rat liver microsomes, Table 1) it was 1.39 ± 0.87 mL/min/g liver. Also, the half-life at 1 µM in data set [1] (pH 7.4, human liver microsomes 0.5 mg/mL, NADPH, 37 °C) was 63.3 ± 1.73 min; in data set [4] (pH 7.4, mouse liver microsomes 0.5 mg/mL, NADPH, 37 °C), 24.6 ± 1.13 min; in data set [7] (rat, liver microsomes, pH 7.4, rat liver microsomes 0.5 mg/mL, NADPH, 37 °C) it was 52.3 ± 0.81 min. For the same molecule, the half-inhibitory concentration (IC50) stood at 13.3 ± 2.37 µM in the data set with RAW 264.7 cells [2]; 14.4 ± 1.83 µM with RAW 264.7 cells [5]; 15.2 ± 0.91 µM in the data set on RAW 264.7 cells [6]; 4.21 ± 0.89 µM on Nrf2-Keap1 interaction; 10.1 ± 0.58 µM in the data set on RAW 264.7 cells [8]; 26.1 ± 1.17 µM with RAW 264.7 cells [9]. In addition, the “cytotoxic effects on RAW 264.7 cells (MTT)” value is reported as “significant toxicity” with RAW 264.7 cells [3] (100 µM, P < 0.05) and “do not show cytotoxic effects” in the data set with RAW 264.7 cells [3] (3.125–50 µM, P > 0.05). Also, the “toxicity on RAW 264.7 cells” value in the data set on RAW 264.7 cells [3] (dose of 50 µM) is reported as “non-toxic”. The T1/2 in [7] (rat liver microsomes 0.5 mg/mL, NADPH, 37 °C) is 52.23 ± 0.81 min.
